Assay results as given in US8178534B2, “cMET inhibitors” (Takeda Pharmaceutical Company Limited, priority 2008, dated 2012).

Assays:
MKN45 = experiment: Inhibition of cell viability (MTS), MKN45; type: cell-based; settings: Homo sapiens, 96 hours incubation
How it was run: (§1)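 Cells seeded at 2,000-7,500/well, attached ~24 h, then treated in duplicate with 1:2.5 serial dilutions at 0.5% final DMSO. Viability by MTS; EC50 from non-linear fit after background correction and normalisation to DMSO. MKN45 and EBC1 are cMET-dependent; A549 serves as negative control.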

[1] = target: T1, cMET enzyme (amino acids 1023-1360) (Homo sapiens, UniProt P08581); experiment: Determination of inhibition of cMET (capillary electrophoresis, phosphorylated peptide product); type: biochemical; settings: 1.2 nM cMET, 50 μM ATP, 2 μM FL-2 peptide, 2 hours room temperature
T1 construct: The cMET enzyme (amino acids 1023-1360) nominally at 24 μM was held at −80° C. until use; His tag (N, cleaved yes); made in house; host or cells: Sf9 cells

EBC1 = experiment: Inhibition of cell viability (MTS), EBC1; type: cell-based; settings: Homo sapiens, 96 hours incubation
How it was run: as §1

A549 = experiment: Inhibition of cell viability (MTS), A549 (negative control line); type: cell-based; settings: Homo sapiens, A549 cells (negative control), 96 hours incubation
How it was run: as §1

T1 sequence (P08581 1023-1360): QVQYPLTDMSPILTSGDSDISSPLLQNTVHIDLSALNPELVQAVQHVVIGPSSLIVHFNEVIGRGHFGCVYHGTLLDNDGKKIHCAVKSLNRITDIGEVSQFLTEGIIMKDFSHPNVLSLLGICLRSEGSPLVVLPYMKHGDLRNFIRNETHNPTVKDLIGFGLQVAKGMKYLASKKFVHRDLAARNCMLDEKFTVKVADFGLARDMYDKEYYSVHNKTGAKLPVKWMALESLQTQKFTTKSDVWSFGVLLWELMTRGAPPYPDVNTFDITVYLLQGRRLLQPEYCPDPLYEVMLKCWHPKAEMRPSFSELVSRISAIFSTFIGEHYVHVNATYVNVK

Compound CC(c1ccc2nc(NC(=O)C3CC3)cn2n1)c1nnc2ccc(-c3cccc(S(C)(=O)=O)c3)cn12 (stereo not shown) [Compound 59, N-(6-(1-(6-(3-(methylsulfonyl)phenyl)-[1,2,4]triazolo[4,3-a]pyridin-3-yl)ethyl)imidazo[1,2-b]pyridazin-2-yl)cyclopropanecarboxamide] has an EC50 (MKN45; MKN-45, 96 h, MKN45 cells) of 100 to 249 nM, an IC50 [1] of less than 30 nM and an EC50 (EBC1; EBC-1, 96 h, EBC1 cells) of 60 to 100 nM. For the same compound, the EC50 (A549; A549, 96 h) was greater than 50000 nM.
For O=C(Nc1cn2nc(C(F)(F)c3nnc4ccc(-c5cn[nH]c5)cn34)ccc2n1)C1CC1 [Compound 92, N-(6-((6-(1H-pyrazol-4-yl)-[1,2,4]triazolo[4,3-a]pyridin-3-yl)difluoromethyl)imidazo[1,2-b]pyridazin-2-yl)cyclopropanecarboxamide], the EC50 (MKN45; MKN-45, 96 h, MKN45 cells) was less than 30 nM, the IC50 [1] was less than 30 nM and the EC50 (EBC1; EBC-1, 96 h, EBC1 cells) was less than 30 nM. For the same compound, the EC50 (A549; A549, 96 h) was greater than 50000 nM.
Compound O=C(Nc1cn2nc(Cn3nnc4ccc(-c5ccccc5)cc43)ccc2n1)C1CC1 [Compound 15] has an EC50 (MKN45; MKN-45, 96 h, MKN45 cells) of 250 to 630 nM, an IC50 [1] of 60 to 100 nM and an EC50 (EBC1; EBC-1, 96 h, EBC1 cells) of 100 to 199 nM. It also gave an EC50 (A549; A549, 96 h) of 8000 to 25000 nM.
In the case of N#Cc1cccc(-c2ccc3nnc(C(F)(F)c4ccc5nc(NC(=O)C6CC6)cn5n4)n3c2)c1 [Compound 82, N-(6-((6-(3-cyanophenyl)-[1,2,4]triazolo[4,3-a]pyridin-3-yl)difluoromethyl)imidazo[1,2-b]pyridazin-2-yl)cyclopropanecarboxamide], the EC50 (MKN45; MKN-45, 96 h, MKN45 cells) is reported as less than 30 nM, the IC50 [1] is reported as less than 30 nM and the EC50 (EBC1; EBC-1, 96 h, EBC1 cells) is reported as less than 30 nM. It also gave an EC50 (A549; A549, 96 h) greater than 50000 nM.
Work on CC(c1ccc2nc(NC(=O)C3CC3)cn2n1)c1nnc2ccc(-c3ccc(C(N)=O)cc3)cn12 (stereo not shown) [Compound 67, 4-(3-(1-(2-(cyclopropanecarboxamido)imidazo[1,2-b]pyridazin-6-yl)ethyl)-[1,2,4]triazolo[4,3-a]pyridin-6-yl)benzamide] yielded an EC50 (MKN45; MKN-45, 96 h, MKN45 cells) of 100 to 249 nM, an IC50 [1] of less than 30 nM and an EC50 (EBC1; EBC-1, 96 h, EBC1 cells) of 60 to 100 nM. For the same compound, the EC50 (A549; A549, 96 h) was greater than 50000 nM.
CNC(=O)c1ccc(-c2ccc3nnc(C(F)(F)c4ccc5nc(NC(=O)C6CC6)cn5n4)n3c2)cc1F [Compound 98, 4-(3-((2-(cyclopropanecarboxamido)imidazo[1,2-b]pyridazin-6-yl)difluoromethyl)-[1,2,4]triazolo[4,3-a]pyridin-6-yl)-2-fluoro-N-methylbenzamide] was tested, and the EC50 (MKN45; MKN-45, 96 h, MKN45 cells) was less than 30 nM, the IC50 [1] was less than 30 nM and the EC50 (EBC1; EBC-1, 96 h, EBC1 cells) was less than 30 nM. It also gave an EC50 (A549; A549, 96 h) greater than 50000 nM.
With O=C(NCCO)Nc1cn2nc(Sc3nnc4ccc(-c5cccc(F)c5)cn34)ccc2n1 [Compound 27, 1-(6-(6-(3-fluorophenyl)-[1,2,4]triazolo[4,3-a]pyridin-3-ylthio)imidazo[1,2-b]pyridazin-2-yl)-3-(2-hydroxyethyl)urea] the EC50 (MKN45; MKN-45, MKN45 cells) was less than 100 nM, the IC50 [1] was less than 30 nM and the EC50 (EBC1; EBC-1, EBC1 cells) was 35 to 99 nM. For the same compound, the EC50 (A549) was greater than 50000 nM.
O=C(Nc1cn2nc(Sc3nnc4ccc(-c5cccc(F)c5)cn34)ccc2n1)C1CC1 [Compound 44, N-(6-(6-(3-fluorophenyl)-[1,2,4]triazolo[4,3-a]pyridin-3-ylthio)imidazo[1,2-b]pyridazin-2-yl)cyclopropanecarboxamide] showed an EC50 (MKN45; MKN-45, 96 h, MKN45 cells) of less than 100 nM, an IC50 [1] of less than 30 nM and an EC50 (EBC1; EBC-1, 96 h, EBC1 cells) of less than 35 nM. It also gave an EC50 (A549; A549, 96 h) of 600 to 1600 nM.
C[C@@H](c1ccc2nc(NC(=O)C3CC3)cn2n1)c1nnc2ccc(-c3cnn(C)c3)cn12 [Compound 50, (S)—N-(6-(1-(6-(1-methyl-1H-pyrazol-4-yl)-[1,2,4]triazolo[4,3-a]pyridin-3-yl)ethyl)imidazo[1,2-b]pyridazin-2-yl)cyclopropanecarboxamide] was tested, and the EC50 (MKN45; MKN-45, 96 h, MKN45 cells) was 30 to 59 nM, the IC50 [1] was less than 30 nM and the EC50 (EBC1; EBC-1, 96 h, EBC1 cells) was less than 30 nM. The EC50 (A549; A549, 96 h) was greater than 50000 nM.
For O=C(Nc1cn2nc(C(F)(F)c3nnc4ccc(-c5ccc(F)cc5)cn34)ccc2n1)C1CC1 [Compound 74, N-(6-(difluoro(6-(4-fluorophenyl)-[1,2,4]triazolo[4,3-a]pyridin-3-yl)methyl)imidazo[1,2-b]pyridazin-2-yl)cyclopropanecarboxamide], the EC50 (MKN45; MKN-45, 96 h, MKN45 cells) was less than 30 nM, the IC50 [1] was less than 30 nM and the EC50 (EBC1; EBC-1, 96 h, EBC1 cells) was less than 30 nM. It also gave an EC50 (A549; A549, 96 h) of 8000 to 25000 nM.
